The source of these data is patent US9505775B2, “Inhibitors of cytomegalovirus” (Boehringer Ingelheim International GmbH, priority 2012, dated 2016).

Each structure is given as a SMILES string.

For this test, the target named is T1, purified recombinant HCMV polymerase from strain AD169 (UL54) (Human cytomegalovirus, UniProt P08546).
T1 construct: made in house; host or cells: Sf21 insect cells (baculovirus)
T1 sequence (P08546 whole entry): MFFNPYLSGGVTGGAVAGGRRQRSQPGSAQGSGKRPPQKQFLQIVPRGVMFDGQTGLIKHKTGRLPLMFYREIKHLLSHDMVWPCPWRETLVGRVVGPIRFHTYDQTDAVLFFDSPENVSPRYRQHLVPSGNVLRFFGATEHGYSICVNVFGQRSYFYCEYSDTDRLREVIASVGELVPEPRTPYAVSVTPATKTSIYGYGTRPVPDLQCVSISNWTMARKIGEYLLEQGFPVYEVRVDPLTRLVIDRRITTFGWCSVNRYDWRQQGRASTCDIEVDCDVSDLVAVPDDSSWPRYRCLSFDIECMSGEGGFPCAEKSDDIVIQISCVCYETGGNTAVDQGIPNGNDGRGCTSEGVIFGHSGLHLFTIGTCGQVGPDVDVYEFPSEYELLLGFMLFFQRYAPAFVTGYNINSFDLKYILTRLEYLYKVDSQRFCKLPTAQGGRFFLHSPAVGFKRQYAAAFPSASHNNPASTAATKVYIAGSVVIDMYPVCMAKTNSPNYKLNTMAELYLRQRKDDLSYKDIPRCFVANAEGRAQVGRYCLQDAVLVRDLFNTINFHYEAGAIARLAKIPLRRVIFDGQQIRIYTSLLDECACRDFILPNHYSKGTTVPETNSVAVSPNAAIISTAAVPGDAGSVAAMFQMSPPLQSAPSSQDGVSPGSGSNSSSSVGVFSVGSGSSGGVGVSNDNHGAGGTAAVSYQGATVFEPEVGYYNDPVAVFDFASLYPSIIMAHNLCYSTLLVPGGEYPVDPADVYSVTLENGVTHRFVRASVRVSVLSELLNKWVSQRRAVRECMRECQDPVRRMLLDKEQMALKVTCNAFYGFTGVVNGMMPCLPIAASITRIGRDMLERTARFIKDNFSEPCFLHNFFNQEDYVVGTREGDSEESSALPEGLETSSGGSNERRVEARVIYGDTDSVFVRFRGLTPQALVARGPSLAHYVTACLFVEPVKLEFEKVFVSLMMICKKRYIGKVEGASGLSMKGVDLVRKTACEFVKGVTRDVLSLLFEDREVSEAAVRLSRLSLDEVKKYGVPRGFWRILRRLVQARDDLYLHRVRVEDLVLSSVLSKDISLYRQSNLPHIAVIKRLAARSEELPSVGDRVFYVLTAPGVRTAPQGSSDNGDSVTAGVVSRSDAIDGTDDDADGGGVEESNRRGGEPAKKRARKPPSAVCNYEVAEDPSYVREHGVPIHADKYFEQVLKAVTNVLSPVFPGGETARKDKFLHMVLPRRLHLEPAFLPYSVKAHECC
Kind of test: HCMV Polymerase LANCE TR-FRET Assay. The following applies: 2 nM GST-UL54, 37° C. for 30 min; read-out: IC50 (nM) Example B. In kind it is biochemical. How it is done: This non-radiometric assay determines the enzymatic activity of purified recombinant HCMV polymerase from strain AD169 (UL54) using a Digoxigenin-labeled oligonucleotide priming a heteropolymeric template. The enzymatic activity is determined by incorporating Biotin-dUTP in the nascent complementary strand. The signal is generated by Fluorescence Resonance Energy Transfer from the donor (Anti-Digoxigenin-Europium Chelate binding with the primer) to the acceptor Streptavidin-AlloPhycoCyanin (SA-APC) binding to the biotin of the labeled nucleotides incorporated in proximity.
Serial dilutions of the DMSO stock compound solution are performed using DMSO in columns 2-11 and 14-23. DMSO alone is present in columns 1, 12, 13 and 24. Three μL of the DMSO serial dilutions is transferred and diluted using 21 μL of compound dilution buffer (10 mM Hepes pH 7.5, 25 mM KCl, 5 mM MgCl2, 1 mM TCEP) to obtain 12.5% DMSO. 4 μL per well of the 12.5% DMSO serial dilution compound solution is added to the assay plate. The plate is centrifuged at 200×g for 30 sec.
The assay conditions are the following: 10 mM HEPES pH 7.5, 25 mM KCl, 7.5 mM NaCl, 5 mM MgCl2, 0.2 mg BSA/mL, 1 mM TCEP, 1.5% glycerol, 5% DMSO, 235 nM dATP, 350 nM dCTP, 350 nM dGTP, 235 nM dTTP, 12 nM biotin-16-dUTP, 23.5 nM Dig-primer/template, 2 nM GST-UL54. The assay volume is 10 μL. […] The primer and template are annealed in 10 mM Tris-HCl pH 7.5, 50 mM NaCl at a respective concentration of 50 μM. They are incubated at 95° C. for 5 min in a dry batch block. The block is removed from the dry bath and allowed to cool to RT. Aliquots are made and stored at −20° C.
To perform the assay, 3 μL of the enzyme solution is added to columns 2-12 and 14-24. The enzyme is substituted by the blank solution (b solution without enzyme) for columns 1 and 13 (blanks). The plate is centrifuged at 200×g for 30 sec. 3 μL of substrate solution is added to each well. The plate is centrifuged at 200×g for 30 sec. Plates are incubated at 37° C. for 30 min. 5 μL of conjugate solution is added (25 mM Hepes pH 7.5, 0.1 M NaCl, 0.25% Tween-20, 1 mg/mL BSA, 12 mM EDTA, 24 nM Sreptavidin-APC, 342 ng/mL Anti-Dig-Europium). The plates are incubated at RT for at least 120 min. The signal is read on the Envision plate reader (Perkin-Elmer) or equivalent.
With `CC1CN(C(=O)[C@H]2CC(=O)N(c3cccc(C#N)c3)C2)c2ccc(CCc3cncnc3)cc21` (single isomer, unassigned) [11dd1], the IC50 (in general, the concentration at which inhibition is half-maximal) worked out at 71 nM. Then `CC(c1ccc2c(c1)C(C)(C)CN2C(=O)[C@H]1CC(=O)N(c2cccc(C#N)c2)C1)n1ccnc1` (mixture of isomers) [11rr1], with 350 nM; and `CC1CN(C(=O)[C@H]2CC(=O)N(c3cccc(Cl)c3)C2)c2ccc(CCn3ccnc3)cc21` (single isomer, unassigned) [11ee1], with 63 nM. For `Cc1ncc(Cc2ccc3c(c2)C2(CC2)CN3C(=O)[C@H]2CC(=O)N(c3cccc(C#N)c3)C2)o1` [22v1], the half-maximal inhibitory concentration (IC50) was found to be 790 nM. For the molecule `Cc1ncc(Cc2ccc3c(c2)C(C)(C)CN3C(=O)[C@H]2CC(=O)N(c3cccc(C#N)c3)C2)o1` [22w1], the IC50 amounted to 470 nM. With `N#Cc1cccc(N2C[C@@H](C(=O)N3CCc4nc(CCn5ccnc5)ccc43)CC2=O)c1` [17n1], the 50% inhibitory concentration (IC50) was found to be 540 nM. `CC1(C)CN(C(=O)[C@H]2CC(=O)N(c3cccc(C#N)c3)C2)c2ccc(Cn3ccnc3CC(=O)O)cc21` [24a1]: the 50% inhibitory concentration (IC50) was 690 nM. In the case of `CC1(C)CN(C(=O)[C@H]2CC(=O)N(c3cccc(C#N)c3)C2)c2ccc(CCc3ccccn3)cc21` [11bbb1], the concentration for half-maximal inhibition (IC50) was 310 nM.

In the case of `Cc1ncc(Cc2ccc3c(c2)C(C)(CO)CN3C(=O)[C@H]2CC(=O)N(c3cccc(Cl)c3)C2)o1` (single isomer, unassigned) [11qq1], the IC50 came out at 750 nM. Then `N#Cc1cccc(N2C[C@@H](C(=O)N3CCc4cc(Cn5ccnc5)ccc43)CC2=O)c1` [13a1], with 150 nM; and `Cc1ncc(Cc2ccc3c(c2)C(C)(C)CN3C(=O)C2CC(=O)N(c3cccc(C#N)c3)C2)o1` (stereo not drawn) [22s1], with 550 nM. Consider `Cn1cncc1Cc1ccc2c(c1)CCN2C(=O)[C@H]1CC(=O)N(c2cccc(C#N)c2)C1` [22j1], for which the IC50 worked out at 480 nM. Then `CC(=O)N1CCC2(CC1)CN(C(=O)[C@H]1CC(=O)N(c3cccc(C#N)c3)C1)c1ccc(Cn3ccnc3C)cc12` [13v1], with 1600 nM; and `Cc1nccn1Cc1ccc2c(c1)C(C)CN2C(=O)[C@H]1CC(=O)N(c2cccc(C#N)c2)C1` (single isomer, unassigned) [13o1], with 3200 nM. Then `CC1(C)CN(C(=O)C2CC(=O)N(c3cccc(C#N)c3)C2)c2ccc(COc3cncnc3)cc21` (stereo not drawn) [13w1], with 840 nM; and `Cc1c(Cn2ccnc2C)ccc2c1C(C)(C)CN2C(=O)[C@H]1CC(=O)N(c2cccc(C#N)c2)C1` [11r1], with 480 nM; and `N#Cc1cccc(N2C[C@@H](C(=O)N3CC4(CC4)c4cc(Cc5cncnc5)ccc43)CC2=O)c1` [22u1], with 570 nM.

For the molecule `CC1(C)CN(C(=O)[C@H]2CC(=O)N(c3cccc(C#N)c3)C2)c2ccc(Cn3cncc3C(=O)O)cc21` [24d1], the IC50 worked out at 550 nM. With `N#Cc1cccc(N2C[C@@H](C(=O)N3CC4(CC4)c4cc(Cn5ccnc5)ccc43)CC2=O)c1` [13r1], the half-maximal inhibitory concentration (IC50) worked out at 360 nM. `CC1(C)CN(C(=O)[C@H]2CC(=O)N(c3cccc(C#N)c3)C2)c2ccc(Cc3cncnc3)cc21` [22l1.2]: the 50% inhibitory concentration (IC50) came out at 380 nM. `Cc1oncc1Cc1ccc2c(c1)CCN2C(=O)[C@H]1CC(=O)N(c2cccc(C#N)c2)C1` [22dd1]: the IC50 amounted to 290 nM.

`CC1(C)CN(C(=O)[C@H]2CC(=O)N(c3cccc(C#N)c3)C2)c2ccc(CCn3ccnc3)cc21` [11e1]: the half-maximal inhibitory concentration (IC50) was 240 nM. `Cc1nccn1Cc1cc2c(cc1C(F)(F)F)N(C(=O)[C@H]1CC(=O)N(c3cccc(C#N)c3)C1)CC2(C)C` [11s1]: the half-inhibitory concentration (IC50) was 590 nM.

In the case of `CC1(C)CN(C(=O)[C@H]2CC(=O)N(c3cccc(C#N)c3)C2)c2ccc(CCc3ccccc3)cc21` [19b2], the 50% inhibitory concentration (IC50) stood at 990 nM. Turning to `CC1(C)CN(C(=O)[C@H]2CC(=O)N(c3cccc(C#N)c3)C2)c2ccc(CCc3cncnc3)cc21` [11f1], the half-inhibitory concentration (IC50) was 95 nM.

For the molecule `CC(C)n1cnnc1CN(C)Cc1ccc2c(c1)CCN2C(=O)C1CC(=O)N(c2cccc(C#N)c2)C1` (stereo not drawn) [16c3], the half-inhibitory concentration (IC50) is 600 nM. `CC1(C)CN(C(=O)C2CC(=O)N(c3cccc(C#N)c3)C2)c2cc(Cl)c(Cn3cnnc3)cc21` (stereo not drawn) [13l1]: the IC50 was 230 nM.

As for `Cc1nccn1Cc1ccc2c(c1F)C(C)(C)CN2C(=O)[C@H]1CC(=O)N(c2cccc(C#N)c2)C1` [13g1], the IC50 amounted to 2100 nM. Then `CNc1ncc(CCc2ccc3c(c2)C(C)(C)CN3C(=O)[C@H]2CC(=O)N(c3cccc(C#N)c3)C2)cn1` [17o1], with 240 nM; and `Cn1cc(CCc2ccc3c(c2)C(C)(C)CN3C(=O)[C@H]2CC(=O)N(c3cccc(C#N)c3)C2)cn1` [11v1], with 510 nM. Take `CC(=O)N1CCC2(CC1)CN(C(=O)[C@H]1CC(=O)N(c3cccc(C#N)c3)C1)c1ccc(Cc3cncnc3)cc12` [22z1]: the half-maximal inhibitory concentration (IC50) came to 1300 nM. For `Cc1nccn1Cc1cc2c(cc1Cl)N(C(=O)[C@H]1CC(=O)N(c3cccc(C#N)c3)C1)CC2(C)C` [13x1], the 50% inhibitory concentration (IC50) was found to be 50 nM.

Consider `CC1(C)CN(C(=O)[C@H]2CC(=O)N(c3cccc(C#N)c3)C2)c2cc(Cl)c(CCn3ccnc3)cc21` [17b1], for which the IC50 amounted to 330 nM. As for `CC1(C)CN(C(=O)[C@H]2CC(=O)N(c3cccc(C#N)c3)C2)c2ccc(CNc3cncnc3)cc21` [31a1], the IC50 came to 86 nM. In the case of `CC1(C)CN(C(=O)[C@H]2CC(=O)N(c3cccc(C#N)c3)C2)c2ccc(Cn3cnnc3)cc21` [11vv1], the IC50 worked out at 160 nM. Regarding `Cn1cncc1CCc1ccc2c(c1)C(C)(CO)CN2C(=O)[C@H]1CC(=O)N(c2cccc(Cl)c2)C1` (single isomer, unassigned) [11oo1], the IC50 amounted to 1600 nM. On to `Cc1ccc(CCc2ccc3c(c2)C(C)(C)CN3C(=O)[C@H]2CC(=O)N(c3cccc(C#N)c3)C2)cn1` [11ss1], for which the IC50 was 130 nM. In the case of `Cc1nccn1Cc1cc2c(cc1F)N(C(=O)[C@H]1CC(=O)N(c3cccc(C#N)c3)C1)CC2(C)C` [13f1], the concentration for half-maximal inhibition (IC50) turned out to be 140 nM. Regarding `Cc1cc2c(cc1Cn1ccnc1C)C(C)(C)CN2C(=O)[C@H]1CC(=O)N(c2cccc(C#N)c2)C1` [11q1], the IC50 was determined as 49 nM. Consider `CC1CN(C(=O)[C@H]2CC(=O)N(c3cccc(Cl)c3)C2)c2ccc(CCc3cncnc3)cc21` (single isomer, unassigned) [11hh1], for which the IC50 is 150 nM. Then `CC1(C)CN(C(=O)[C@H]2CC(=O)N(c3cccc(Cl)c3)C2)c2ccc(CCc3cncnc3)cc21` [11h1], with 94 nM; and `CC(=O)N1CCC2(CC1)CN(C(=O)[C@H]1CC(=O)N(c3cccc(C#N)c3)C1)c1ccc(CN3CCOCC3)cc12` [11a1], with 580 nM. As for `CC1CN(C(=O)[C@H]2CC(=O)N(c3cccc(C#N)c3)C2)c2ccc(CCn3ccnc3)cc21` (single isomer, unassigned) [11aa1], the concentration for half-maximal inhibition (IC50) is 100 nM. Take `CC1(C)CN(C(=O)[C@H]2CC(=O)N(c3cccc(C#N)c3)C2)c2ccc(CCc3cncc(C#N)c3)cc21` [11t1]: the IC50 was found to be 370 nM. In the case of `CC1(C)CN(C(=O)[C@H]2CC(=O)N(c3cccc(Cl)c3)C2)c2ccc(Cn3ccnc3)cc21` [13d1], the 50% inhibitory concentration (IC50) turned out to be 110 nM. Then `N#Cc1cccc(N2C[C@@H](C(=O)N3CC4(CCOCC4)c4cc(Cn5ccnc5)ccc43)CC2=O)c1` [13t1], with 730 nM; and `CC1(C)CN(C(=O)[C@H]2CC(=O)N(c3cccc(C#N)c3)C2)c2ccc(CCc3cccc(O)c3)cc21` [11ccc1], with 87 nM. Then `CC1(C)CN(C(=O)[C@H]2CC(=O)N(c3cccc(Cl)c3)C2)c2ccc(CCn3ccnc3)cc21` [11g1], with 200 nM; and `CC1(C)CN(C(=O)[C@H]2CC(=O)N(c3cccc(C#N)c3)C2)c2ccc(CCn3cncn3)cc21` [11zz1], with 99 nM. For the molecule `CC1(C)CN(C(=O)[C@H]2CC(=O)N(c3cccc(C#N)c3)C2)c2ccc(CCc3cncc(N)c3)cc21` [11ddd1], the half-inhibitory concentration (IC50) worked out at 38 nM. Consider `Cn1cncc1CCc1ccc2c(c1)C(C)(C)CN2C(=O)[C@H]1CC(=O)N(c2cccc(C#N)c2)C1` [19c2], for which the IC50 came to 420 nM. Then `Cc1noc(C)c1Cc1ccc2c(c1)C(C)(C)CN2C(=O)[C@H]1CC(=O)N(c2cccc(C#N)c2)C1` [22bb1], with 350 nM; and `CC1(C)CN(C(=O)[C@H]2CC(=O)N(c3cccc(C#N)c3)C2)c2ccc(Cc3cnoc3)cc21` [22a2], with 260 nM; and `CC1(C)CN(C(=O)[C@H]2CC(=O)N(c3cccc(C#N)c3)C2)c2ccc(Cc3ccncc3)cc21` [22o1], with 2900 nM.
